Data published in patent publication US9393271B2, “GHRH agonists for islet cell transplantation and function and the treatment of diabetes” (UNIVERSITY OF MIAMI, priority 2012, dated 2016).
Non-standard residues stand in square brackets, D forms with d. Residues, ends and D or L forms follow the SMILES beside them. NMeY = CN[C@@H](Cc1ccc(O)cc1)C(=O)O; Nle = CCCC[C@H](N)C(=O)O; Orn = NCCC[C@H](N)C(=O)O; Abu = CC[C@H](N)C(=O)O

Assays:
GH level [1] = experiment: In vivo endocrine activity (GH release), intravenous administration; settings: rat
Protocol: In vivo tests on endocrine activity of new GHRH agonists (Intravenous administration). For in vivo tests based on intravenous administration, adult male Sprague-Dawley rats were anesthetized with pentobarbital (6 mg/100/g, b.w.), and GHRH agonists were injected 20 minutes after the injection of pentobarbital. Blood samples were taken from the jugular vein (pretreated level), immediately after hGHRH(1-29)NH2 injection (as a control) or after hGHRH analogs injection. Blood samples were taken from the jugular vein 5, 15 and 30 minutes after the injection. The blood samples were centrifuged, plasma was removed and the GH level was measured by ELISA.

GH level [2] = experiment: In vivo endocrine activity (GH release), subcutaneous administration; settings: rat, s.c.
Protocol: Subcutaneous Administration. Adult male rats were used and anesthetized with pentobarbital (6 mg/100 g, b.w.), by i.p. injection. […] Blood samples were taken from the jugular vein 5, 15 and/or 30 minutes after the injection. The blood samples were centrifuged, plasma was removed and the GH level was measured by ELISA. The results are summarized in terms of potency in Table 9.

INS-1 cells [3] = experiment: INS-1 cell viability (CellTiter 96 AQueous One Solution); format: cell-based, rat; settings: 10^-7 to 10^-9 M, 24 hrs
Protocol: (§1) Rat insulinoma cells (INS-1) were cultured in RPMI Medium 1640 (PAA) containing 2 mM L-glutamine, 10% FBS, 1 mM Na-pyruvate, 50 μM 2-mercaptoethanol, and 100 U/mL penicillin/streptomycin (Gibco) at 37° C. in a 5% CO2 humidified incubator. Medium was exchanged every second day and cells were passaged once per week. INS-1 cells were treated with the GHRH agonist P-27403 at concentrations from 10^−7 to 10^−9 M for 24 hrs and was analyzed for viability and apoptosis. Viability was assessed using CellTiter 96 AQueous One Solution Cell Proliferation Assay (Promega) according to the manufacturer's instructions. Apoptosis was assayed by determination of caspase 3/7 activity using Caspase-Glo 3/7 Assay (Promega) according to manufacturer's instructions.
INS-1 cells were grown for 72 hours before experimentation. Cells were treated with different GHRH agonist peptides (MR-356/P-20356, MR-361/P-20361, MR-367/P-20367, MR-403/P-27403, MR-409/P-27409, MR-502/P-25502) at different concentrations (10^−6-10^−10 M) or with 0.1% (vol/vol) DMSO as control for 24 h, 48 h and 72 h. Viability was assessed using CellTiter 96 AQueous One Solution Cell Proliferation Assay (Promega) according to the manufacturer's instructions. Treatment of INS-1 cells with GHRH agonist peptides for 72 h improved cell viability. Cell viability was expressed as percent of cells treated with control DMSO (FIG. 7).

INS-1 cells [4] = experiment: INS-1 apoptosis, caspase 3/7 activity (Caspase-Glo 3/7); format: cell-based, rat; settings: 24 hrs
Protocol: as §1
INS-1 cells were grown for 72 h before experimentation. Cells were treated with various GHRH agonist peptides at different concentrations or with 0.1% (vol/vol) DMSO as control for 24 h, 48 h and 72 h. Apoptosis was assayed by determination of caspase 3/7 activity using Caspase-Glo 3/7 Assay (Promega) according to the manufacturer's instructions.

INS-1 cells [5] = experiment: INS-1 proliferation (BrdU Cell Proliferation Assay); format: cell-based, rat
Protocol: For determination of proliferation activity, BrdU incorporation was performed in INS-1 cells following exposure to P-27403. Proliferation was measured using BrdU Cell Proliferation Assay (Millipore) following the manufacturer's description. The maximal enhancement in proliferation rate of 16% compared to control was found at 10^−8 M concentration of P-27403 (FIG. 1C).
INS-1 cells were grown for 72 h before experimentation. Cells were treated with GHRH agonists MR356, MR367, and MR403 at different concentrations or with 0.1% (vol/vol) DMSO as control for 24 h, 48 h and 72 h. Proliferation was measured using BrdU Cell Proliferation Assay (Millipore) following the manufacturer's description.

rat islets = experiment: Viability of rat islets alone or in co-culture with adrenal cells; format: cell-based; settings: rat islets alone, 10^-8 M, 24 hrs
Protocol: Pancreatic islets were isolated from female Wistar rats as described in prior art, and according to guidelines established by the University Institutional Animal Care and Use Committee. Briefly, animals were anesthetized by 3% isoflurane and digestion solution (Collagenase V; Sigma-Aldrich) was injected via the pancreatic duct. Islets were isolated by discontinuous Ficoll gradient centrifugation (Sigma-Aldrich). Isolated islets were cultured in RPMI 1640 (PAA) supplemented with 10% FBS at 37° C. in a 5% CO2 atmosphere prior to further experimentation. Yield and purity of islets were determined by microscopic sizing after staining with dithizone (Sigma-Aldrich) as previously described.
Female Wistar rats were used as adrenal donors according to guidelines established by the University Institutional Animal Care and Use Committee. After euthanization, the adrenal glands were rapidly removed and kept in PBS at 4° C. After removal of adipose tissue, the capsule was removed. The tissue was then incubated at 37° C. in PBS containing collagenase type II (2.0 mg/ml; Sigma-Aldrich) and DNase (0.15 mg/ml; Sigma-Aldrich). After incubation for 30 min, the digestion was stopped by adding cold PBS. […]
Isolated rat islets and co-cultured islets were treated with P-27403 at a concentration of 10^−8 M or with 0.1% DMSO as control for 24 hrs, and then analyzed for viability. […]

[6] = molecular target: T1, GHRH receptor (human pituitary membrane homogenates) (Homo sapiens, UniProt Q02643); experiment: GHRH receptor binding, ligand competition with 125I-labeled JV-1-42 (Table 7); parameters: Normal human pituitaries were purchased from the National Hormone and Peptide Program; tissue National Hormone and Peptide Program (A. F. Parlow, Harbor-UCLA Medical Center, Torrance, Calif.); host or cells: normal human pituitary, membrane fraction / homogenate; settings: JI-38 = 1
T1 sequence (Q02643 23-423): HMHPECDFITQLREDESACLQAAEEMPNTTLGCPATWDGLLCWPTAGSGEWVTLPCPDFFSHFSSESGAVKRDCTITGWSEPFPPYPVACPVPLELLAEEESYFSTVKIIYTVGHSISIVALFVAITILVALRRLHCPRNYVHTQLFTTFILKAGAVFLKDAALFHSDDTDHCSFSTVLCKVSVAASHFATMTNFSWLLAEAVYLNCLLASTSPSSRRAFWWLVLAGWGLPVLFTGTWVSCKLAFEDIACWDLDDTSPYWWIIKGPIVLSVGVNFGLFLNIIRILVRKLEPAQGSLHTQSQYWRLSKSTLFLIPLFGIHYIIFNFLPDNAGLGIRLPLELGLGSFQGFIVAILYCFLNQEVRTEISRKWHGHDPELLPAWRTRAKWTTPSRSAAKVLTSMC

Relative affinitiy (Binding potency) vs JI-38 [6]: 27.19
Compound: CCCC[C@H](NC(=O)[C@@H](NC(=O)[C@H](CC(=O)O)NC(=O)[C@H](CCC(N)=O)NC(=O)[C@H](CC(C)C)NC(=O)[C@H](CC(C)C)NC(=O)[C@H](CCCN)NC(=O)[C@H](CCCNC(=N)N)NC(=O)[C@H](C)NC(=O)[C@H](CO)NC(=O)[C@H](CC(C)C)NC(=O)[C@H](CCC(N)=O)NC(=O)[C@H](CC)NC(=O)[C@H](CC(C)C)NC(=O)[C@@H](NC(=O)[C@H](CCCN)NC(=O)[C@H](CCCNC(=N)N)NC(=O)[C@H](Cc1ccc(O)cc1)NC(=O)[C@H](CO)NC(=O)[C@H](CCC(N)=O)NC(=O)[C@@H](NC(=O)[C@H](Cc1ccccc1)NC(=O)[C@@H](NC(=O)[C@H](C)NC(=O)[C@H](CC(=O)O)NC(=O)[C@@H](C)NC(=O)[C@H](Cc1ccc(O)cc1)NC)[C@@H](C)CC)[C@@H](C)O)C(C)C)[C@@H](C)CC)C(=O)N[C@@H](CC(=O)O)C(=O)N[C@@H](CCCNC(=N)N)C(=O)NC [Peptide P-27403, [N—Me-Tyr^1, D-Ala^2, Gln^8, Orn^12, Abu^15, Orn^21, Nle^27, Asp^28]hGHRH(1-29)NH—CH3] (H-[NMeY][dA]DAIFTQSYR[Orn]VL[Abu]QLSAR[Orn]LLQDI[Nle]DR-NHMe)
Stimulation of growth hormone levels after i.v. administration (comparison in words) (GH level [1]): most potent | Stimulation of growth hormone levels after s.c. administration (comparison in words) (GH level [2]): stimulated greater growth hormone levels than hGHRH or JI-38 | Viability compared to control (INS-1 cells [3]): increased viability at all concentrations used | Apoptosis, caspase 3/7 activity (INS-1 cells [4]; 10^-7 to 10^-9 M): overall reduction of apoptosis | Reduction of apoptosis (caspases 3/7 activity) (INS-1 cells [4]; 10^-8 M): 14% | Reduction of apoptosis (caspases 3/7 activity) (INS-1 cells [4]; 10^-9 M): 18% | Enhancement in proliferation rate compared to control (INS-1 cells [5]; 10^-8 M, 24 hrs): 16% | Cell proliferation compared to control (INS-1 cells [5]; different concentrations, 24 h, 48 h and 72 h): significantly induced cell proliferation | Islet viability (rat islets): increase in viability | Islet viability (rat islets; listed as MR403): increase of viability
